# Biological target: Adenosine receptor A2a (Homo sapiens, UniProt P29274)
# Sequence (P29274 whole entry): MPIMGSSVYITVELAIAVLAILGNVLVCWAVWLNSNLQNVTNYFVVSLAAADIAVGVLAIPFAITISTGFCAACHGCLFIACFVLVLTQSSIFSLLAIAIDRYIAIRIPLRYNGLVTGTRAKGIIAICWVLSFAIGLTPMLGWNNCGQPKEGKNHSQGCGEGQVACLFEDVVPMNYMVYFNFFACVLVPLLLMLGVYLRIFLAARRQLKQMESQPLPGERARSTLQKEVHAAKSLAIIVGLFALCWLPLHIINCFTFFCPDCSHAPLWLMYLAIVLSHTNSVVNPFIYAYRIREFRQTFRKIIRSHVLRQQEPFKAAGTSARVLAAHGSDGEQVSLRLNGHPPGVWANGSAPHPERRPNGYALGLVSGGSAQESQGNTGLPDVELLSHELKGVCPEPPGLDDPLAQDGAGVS
row,Compound,Ki
1,Cn1c(=O)c2[nH]c(-c3ccc(Cl)cc3)nc2n(C)c1=O,371 nM
2,O=c1nc2[nH]c3ccccc3nc-2c(=O)[nH]1,2720 nM
3,"CC(C)Cn1c(=O)n(C)c(=O)c2[nH]cnc21 [1-methyl-3-(2-methylpropyl)-2,3,6,7-tetrahydro-1H-purine-2,6-dione]",> 10000 nM
4,CCCn1c(=O)c2nc(-c3ccc(N)cc3N)[nH]c2n(CCC)c1=O,214 nM
5,"Cn1c(=O)[nH]c2nc[nH]c2c1=O [1-Methyl-3,9-dihydro-purine-2,6-dione(1-methylxanthine)]",> 10000 nM
6,"Cn1c(=O)c2[nH]c(-c3ccc(S(=O)(=O)O)cc3)nc2n(C)c1=O [4-(1,3-Dimethyl-2,6-dioxo-2,3,6,7-tetrahydro-1H-purin-8-yl)-benzenesulfonic acid]",> 10000 nM
7,Cn1c(=O)c2[nH]c(-c3ccc([N+](=O)[O-])cc3)nc2n(C)c1=O [8-(4-Nitrophenyl)theophylline],2520 nM
8,CCCc1nc2c([nH]1)c(=O)n(C)c(=O)n2C,> 10000 nM
9,Cn1c(=O)c2[nH]c(-c3ccc(C(=O)O)cc3)nc2n(C)c1=O [8-(4-Carboxyphenyl)theophylline],7260 nM
10,"COc1ccc(-c2nc3c([nH]2)c(=O)n(C)c(=O)n3C)cc1 [8-(4-methoxyphenyl)-1,3-dimethyl-1H-purine-2,6(3H,7H)-dione]",419 nM
11,Cn1c(=O)c2nc(-c3ccccc3N)[nH]c2n(C)c1=O [8-(2-Aminophenyl)theophylline],1430 nM
12,Cn1c(=O)c2c(ncn2CCCl)n(C)c1=O [7-(2-Chloroethyl)theophylline],> 10000 nM
13,Cn1c(=O)c2[nH]c(-c3ccc(N)cc3)nc2n(C)c1=O,391 nM

# Other lines, results leading:
row,Ki,Compound
1,2240 nM,"CCCCNc1c(C(=O)OCC)cnc2c1cnn2CC [ethyl 4-(butylamino)-1-ethyl-1H-pyrazolo[3,4-b]pyridine-5-carboxylate]"
2,91.9 nM,CCCn1c(=O)c2[nH]c(-c3ccc(Cl)cc3N)nc2n(CCC)c1=O [NSC_92411]
3,> 10000 nM,CCn1c(=O)c2nc[nH]c2n(CC)c1=O [NSC_101420]
4,> 10000 nM,CCCCn1c(=O)c2c(ncn2C)n(C)c1=O [NSC_70835]
5,1560 nM,CCCCNc1c(C(=O)OCC)c(C)nc2c1cnn2CC [NSC_5522]
6,> 10000 nM,CCn1c(=O)c2c(ncn2C)n(C)c1=O [NSC_93219]
7,1580 nM,Cn1c(=O)c2nc(-c3cccs3)[nH]c2n(C)c1=O [CAS_267102]

# Biological target: Adenosine receptor A2a (Rattus norvegicus, UniProt P30543)
# Sequence (P30543 whole entry): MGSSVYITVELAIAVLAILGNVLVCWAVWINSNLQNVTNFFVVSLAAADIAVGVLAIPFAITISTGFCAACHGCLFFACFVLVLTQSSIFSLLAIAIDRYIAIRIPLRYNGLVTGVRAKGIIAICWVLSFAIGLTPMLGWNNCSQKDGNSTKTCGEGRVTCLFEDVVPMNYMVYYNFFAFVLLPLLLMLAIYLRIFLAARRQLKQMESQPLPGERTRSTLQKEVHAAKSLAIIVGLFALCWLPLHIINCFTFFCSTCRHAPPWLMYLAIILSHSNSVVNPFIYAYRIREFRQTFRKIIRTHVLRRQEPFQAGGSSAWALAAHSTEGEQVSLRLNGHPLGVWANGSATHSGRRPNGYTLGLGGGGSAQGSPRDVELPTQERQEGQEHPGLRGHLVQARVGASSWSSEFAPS
row,Compound,Ki
1,Nc1ncnc2c1ncn2[C@@H]1O[C@H](CO[N+](=O)[O-])[C@@H](O)[C@H]1O [5'-O-Nitroado],335 nM
2,Nc1nccc2c1SCN2[C@@H]1O[C@H](CO)[C@@H](O)[C@H]1O [7-Thia-9deazaado],> 10000 nM
3,COc1ccc(-c2nc(N)c3ncn([C@@H]4O[C@H](CO)[C@@H](O)[C@H]4O)c3n2)cc1 [2-(4-Methoxyphenyl)ado (CV-1674)],605 nM
4,"O=c1[nH]c2c(ncn2[C@@H]2O[C@H](CO)[C@@H](O)[C@H]2O)c2nccn12 [1,N6-Ehteno-2-oxoado]",> 10000 nM
5,CSC[C@H]1O[C@@H](n2cnc3c(N)nc(Cl)nc32)[C@H](O)[C@@H]1O [2-Chloro-5'-methylthioado],1880 nM
6,Cn1c(N)c2ncn([C@@H]3O[C@H](CO)[C@@H](O)[C@H]3O)c2nc1=O [1-Methyl-2-oxoado],3250 nM
7,CNc1ncnc2c1ncn2[C@H]1C[C@H](O)[C@@H](CO)O1 [2'-Deoxy-N6-methylado],> 10000 nM
8,Nc1ncnc2c1ncn2[C@@H]1O[C@H](CI)[C@@H](O)[C@H]1O [5'-Deoxy-5'-iodoado],637 nM
9,CC(=O)OCC1O[C@@H](n2cnc3c(N)ncnc32)[C@H](O)[C@@H]1O (some centres undefined) [5'-O-Acetylado],4510 nM
10,Nc1nc(NC2CCCC2)nc2c1ncn2[C@@H]1O[C@H](CO)[C@@H](O)[C@H]1O,462 nM

# Other lines, results leading:
row,Ki,Compound
1,4300 nM,Nc1ncnc2c1ncn2[C@@H]1O[C@H](NC(=O)C2CCCCC2)[C@@H](O)[C@H]1O [Ado-5'-cyclohexylcarboxamide]
2,387 nM,CCC(=O)OC[C@H]1O[C@@H](n2cnc3c(N)ncnc32)[C@H](O)[C@@H]1O [Ado-5'-ethylcarboxylate]
3,13.4 nM,Nc1ncnc2c1ncn2[C@@H]1O[C@H](CNC(=O)C2CC2)[C@@H](O)[C@H]1O [Ado-5'-cyclopropylcarboxamide]
4,285 nM,OC[C@H]1O[C@@H](n2cnc3c(NCc4ccccc4)ncnc32)[C@H](O)[C@@H]1O [N6-benzylado]
5,120 nM,NC(=O)OC[C@H]1O[C@@H](n2cnc3c(N)ncnc32)[C@H](O)[C@@H]1O [Ado-5'-carboxamide]
6,57.5 nM,NC(=O)CCOC[C@H]1O[C@@H](n2cnc3c(N)ncnc32)[C@H](O)[C@@H]1O [Ado-5'-(2-hydroxyethyl)carboxamide]
7,1100 nM,"CSC[C@H]1O[C@@H](n2cnc3c(N)ncnc32)[C@H](O)[C@@H]1O [(2R,3R,4S,5S)-2-(6-aminopurin-9-yl)-5-(methylsulfanylmethyl)oxolane-3,4-diol]"
8,331 nM,Nc1nc(=O)[nH]c2c1ncn2[C@@H]1O[C@H](CO)[C@@H](O)[C@H]1O [CAS_1818-71-9]
9,> 10000 nM,Nc1nccc2c1ncn2[C@@H]1O[C@H](CO)[C@@H](O)[C@H]1O [CAS_6736-58-9]
